In US10104891B2 (priority 2014, dated 2018) one finds pest or weed control data, which are given here for 15 molecules.

Each structure is given as a SMILES string. Where only a bound is given, the exact number is not on record here.

What all share (assay type): in vivo
For assay [1], the system named is Phytophthora infestans. Kind of assay: whole plant or invertebrate. Conditions: Phytophthora infestans, in Solanum lycopersicum, 96 h, read-out: control value (Test 1).
In assay [2] the test system is Pseudoperonospora cubensis. Kind of assay: Test 2: control effect against cucumber downy mildew. Conditions: Pseudoperonospora cubensis, 120 h, control value vs untreated section. An outline of the steps: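 Cucumber (Sagami hanjiro) at 2-leaf stage sprayed with 4 ppm compound from 10% wettable powder in Tween20 (1/5000); inoculated next day with P. cubensis zoospores, 1.0×10^4 units/ml, 16 hr moist chamber at 22° C. Lesion area rate scored 5 days post-inoculation; control value = (1 − treated/untreated onset area rate)×100.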

In assay [3] the test system is Plasmopara viticola. Kind of assay: Test 3: control effect against grape downy mildew. To be noted: Plasmopara viticola, 120 h, control value vs untreated section. An outline of the steps:
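Neomuscat grape seedlings were sprayed with compound at 4 ppm, diluted from a 10% wettable powder in Tween20 solution. One day later they were inoculated with Plasmopara viticola zoospores at 1.0×10^4 units/ml and held moist at 22° C. for 16 hr. Control value was derived from leaf lesion area at 5 days versus untreated leaves.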

In assay [4] the test system is Pythium graminicola. Kind of assay: Test 4: control effect against rice damping-off by the Pythium fungus (soil lavage). To be noted: 1,000 ppm, 2.5 ml test suspension drenched on contaminated soil, rice (koshihikari). The procedure: A 10% wettable powder created according to the Pharmaceutical Formulation Example 1 was diluted with a Tween20 solution prepared to a concentration of 1/5000, then the compound of formula [1] was prepared to a concentration of 4 ppm. Further, the compound of formula [1] in Test 4 was adjusted to a concentration of 1,000 ppm.
<Test 4 Test of Control Effect Against Rice Damping-Off by the Pythium Fungus (Soil Lavage)>
Distilled water was added to the flora of Pythium graminicola cultured in bentoglass seed culture and stirred with a mixer, and adjusted the contaminated soil to 5 g of bacteria against 1 kg of soil.
In a cell tray having 31×31 mm^2 per cell, 20 ml of the contaminated soil was filled in each cell, and 3 seeds of rice chaff that has been forced to sprout (Species: koshihikari) were seeded, and 5 ml of soil was added for covering, then 2.5 ml of test suspension was drenched, and the seeds were incubated in a moist chamber adjusted to 28° C. for 72 hr to induce sprouting. Then, in a low temperature room of 5° C., the onset of disease was induced for 2 days, then the disease was nurtured for 14 days in a room of 25° C.
The soil was washed, and the apoptosis strain, growth restrained strain, and a healthy strain were measured and the onset rate was calculated by the following formula. Onset rate=[Σ(onset strain number by level×onset index)/(investigated strain×3)]×100 [Onset Index]
1: Growth restrained strain
Also, the following formula was used to compute the control value from the obtained onset index. control value={1−onset area rate at the section applied the test agent/onset area rate of untreated section}×100 Computational formula of the control value: […]

For the molecule `Cc1cc(C(F)(F)F)nn1CC(=O)N1CCC(c2nc(C3OCc4cccc(Cl)c4CO3)cs2)CC1` (stereo not drawn) [Compound 1-23, 4-[4-(6-chloro-1,5-dihydro-3H-2,4-benzodioxepin-3-yl)-2-thiazolyl]-1-[2-[5-methyl-3-(trifluoromethyl)-1H-pyrazole-1-yl]acetyl]piperidine], the pest or weed control at 4 µg/mL in assay [1], in assay [2] and in assay [3] was 100% in each case. Also, the pest or weed control at 1000 ppm in assay [4] is ≥ 90%.
`Cc1cc(C(F)(F)F)nn1CC(=O)N1CCC(c2nc(C3OCc4c(OS(C)(=O)=O)ccc([N+](=O)[O-])c4CO3)cs2)CC1` (stereo not drawn) [Compound 1-32, 4-[4-(6-methylsulfonyloxy-9-nitro-1,5-dihydro-3H-2,4-benzodioxepin-3-yl)-2-thiazolyl]-1-[2-[5-methyl-3-(trifluoromethyl)-1H-pyrazole-1-yl]acetyl]piperidine]: the pest or weed control at 4 µg/mL in assay [1], in assay [2] and in assay [3] was 100% throughout. Moreover, in assay [4], the pest or weed control at 1000 ppm was ≥ 90%.
Turning to `Cc1cc(C(F)(F)F)nn1CC(=O)N1CCC(c2nc(C3OCc4cccc(O)c4CO3)cs2)CC1` (stereo not drawn) [Compound 1-33, 4-[4-(6-hydroxy-1,5-dihydro-3H-2,4-benzodioxepin-3-yl)-2-thiazolyl]-1-[2-[5-methyl-3-(trifluoromethyl)-1H-pyrazole-1-yl]acetyl]piperidine], the pest or weed control at 4 µg/mL in assay [1], in assay [2] and in assay [3] was 100% in each case. Further, the pest or weed control at 1000 ppm in assay [4] is ≥ 90%.
For the molecule `Cc1cc(C(F)(F)F)nn1CC(=O)N1CCC(c2nc(C3OCc4cccc(OC(=O)C5CC5)c4CO3)cs2)CC1` (stereo not drawn) [Compound 1-34, 4-[4-(6-cyclopropylcarbonyloxy-1,5-dihydro-3H-2,4-benzodioxepin-3-yl)-2-thiazolyl]-1-[2-[5-methyl-3-(trifluoromethyl)-1H-pyrazole-1-yl]acetyl]piperidine], the pest or weed control at 4 µg/mL in assay [1], in assay [2] and in assay [3] was 100% each time. In assay [4], the pest or weed control at 1000 ppm is ≥ 90%.
`Cc1cc(C(F)(F)F)nn1CC(=O)N1CCC(c2nc(C3OCc4cccc(OS(=O)(=O)C(F)(F)F)c4CO3)cs2)CC1` (stereo not drawn) [Compound 1-36, 4-[4-[6-(trifluoromethyl)sulfonyloxy-1,5-dihydro-3H-2,4-benzodioxepin-3-yl]-2-thiazolyl]-1-[2-[5-methyl-3-(trifluoromethyl)-1H-pyrazole-1-yl]acetyl]piperidine]: the pest or weed control at 4 µg/mL in assay [1], in assay [2] and in assay [3] was 100% each time. Besides, the pest or weed control at 1000 ppm in assay [4] is ≥ 90%.
For `Cc1cc(C(F)(F)F)nn1CC(=O)N1CCC(c2nc(C3OCc4ccc(Cl)cc4CO3)cs2)CC1` (stereo not drawn) [Compound 1-40, 4-[4-(7-chloro-1,5-dihydro-3H-2,4-benzodioxepin-3-yl)-2-thiazolyl]-1-[2-[5-methyl-3-(trifluoromethyl)-1H-pyrazole-1-yl]acetyl]piperidine], the pest or weed control at 4 µg/mL in assay [1], in assay [2] and in assay [3] was 100% each time. Further, in assay [4], the pest or weed control at 1000 ppm is ≥ 90%.
On to `Cc1ccc(OS(C)(=O)=O)c2c1COC(c1csc(C3CCN(C(=O)Cn4nc(C(F)F)cc4C(F)F)CC3)n1)OC2` (stereo not drawn) [Compound 1-44, 4-[4-(6-methyl-9-methylsulfonyloxy-1,5-dihydro-3H-2,4-benzodioxepin-3-yl)-2-thiazolyl]-1-[2-[3,5-bis(difluoromethyl)-1H-pyrazole-1-yl]acetyl]piperidine], for which the pest or weed control at 4 µg/mL in assay [1], in assay [2] and in assay [3] was 100% each time. For the same molecule, in assay [4], the pest or weed control at 1000 ppm is ≥ 90%.
Consider `Cc1cc(C(F)(F)F)nn1CC(=O)N1CCC(c2nc(C3OCc4ccc(F)c(OS(C)(=O)=O)c4CO3)cs2)CC1` (stereo not drawn) [Compound 1-45, 4-[4-(7-fluoro-6-methylsulfonyloxy-1,5-dihydro-3H-2,4-benzodioxepin-3-yl)-2-thiazolyl]-1-[2-[5-methyl-3-(trifluoromethyl)-1H-pyrazole-1-yl]acetyl]piperidine], for which the pest or weed control at 4 µg/mL in assay [1], in assay [2] and in assay [3] was 100% throughout. Moreover, in assay [4], the pest or weed control at 1000 ppm was ≥ 90%.
On to `Cc1cc(C(F)(F)F)nn1CC(=O)N1CCC(c2nc(C3OCc4cccc(S(C)(=O)=O)c4CO3)cs2)CC1` (stereo not drawn) [Compound 1-47, 4-[4-(6-methylsulfonyl-1,5-dihydro-3H-2,4-benzodioxepin-3-yl)-2-thiazolyl]-1-[2-[5-methyl-3-(trifluoromethyl)-1H-pyrazole-1-yl]acetyl]piperidine], for which the pest or weed control at 4 µg/mL in assay [1], in assay [2] and in assay [3] was 100% each time. Further, the pest or weed control at 1000 ppm in assay [4] is ≥ 90%.
As for `O=C(Cn1nc(C(F)F)cc1C(F)F)N1CCC(c2nc(C3OCc4ccc([N+](=O)[O-])cc4CO3)cs2)CC1` (stereo not drawn) [Compound 1-49, 4-[4-(7-nitro-1,5-dihydro-3H-2,4-benzodioxepin-3-yl)-2-thiazolyl]-1-[2-[3,5-bis(difluoromethyl)-1H-pyrazole-1-yl]acetyl]piperidine], the pest or weed control at 4 µg/mL in assay [1], in assay [2] and in assay [3] was 100% in each case. In assay [4], the pest or weed control at 1000 ppm is ≥ 90%.
For `O=C(Cn1nc(C(F)(F)F)cc1C(F)(F)F)N1CCC(c2nc(C3OCc4c(F)ccc(F)c4CO3)cs2)CC1` [Compound 1-50, 4-[4-(6,9-difluoro-1,5-dihydro-3H-2,4-benzodioxepin-3-yl)-2-thiazolyl]-1-[2-[3,5-bis(trifluoromethyl)-1H-pyrazole-1-yl]acetyl]piperidine], the pest or weed control at 4 µg/mL in assay [1], in assay [2] and in assay [3] was 100% throughout. For the same molecule, in assay [4], the pest or weed control at 1000 ppm was ≥ 90%.
`O=C(Cn1nc(C(F)F)cc1C(F)F)N1CCC(c2nc(C3OCc4c(F)ccc(F)c4CO3)cs2)CC1` [Compound 1-51, 4-[4-(6,9-difluoro-1,5-dihydro-3H-2,4-benzodioxepin-3-yl)-2-thiazolyl]-1-[2-[3,5-bis(difluoromethyl)-1H-pyrazole-1-yl]acetyl]piperidine]: the pest or weed control at 4 µg/mL in assay [1], in assay [2] and in assay [3] was 100% throughout. Further, the pest or weed control at 1000 ppm in assay [4] was ≥ 90%.
On to `COc1ccc(Br)c2c1COC(c1csc(C3CCN(C(=O)Cn4nc(C(F)F)cc4C(F)F)CC3)n1)OC2` (stereo not drawn) [Compound 1-57, 4-[4-(6-bromo-9-methoxy-1,5-dihydro-3H-2,4-benzodioxepin-3-yl)-2-thiazolyl]-1-[2-[3,5-bis(difluoromethyl)-1H-pyrazole-1-yl]acetyl]piperidine], for which the pest or weed control at 4 µg/mL in assay [1], in assay [2] and in assay [3] was 100% in each case. Moreover, the pest or weed control at 1000 ppm in assay [4] is ≥ 90%.
As for `CS(=O)(=O)Oc1ccc(F)c2c1COC(c1csc(C3CCN(C(=O)Cn4nc(C(F)F)cc4C(F)F)CC3)n1)OC2` (stereo not drawn) [Compound 1-62, 4-[4-(6-fluoro-9-methylsulfonyloxy-1,5-dihydro-3H-2,4-benzodioxepin-3-yl)-2-thiazolyl]-1-[2-[3,5-bis(difluoromethyl)-1H-pyrazole-1-yl]acetyl]piperidine], the pest or weed control at 4 µg/mL in assay [1], in assay [2] and in assay [3] was 100% each time. In addition, the pest or weed control at 1000 ppm in assay [4] is ≥ 90%.
Turning to `Cc1cc(C(F)(F)F)nn1CC(=O)N1CCC(c2nc(C3OCc4cccc(CCl)c4CO3)cs2)CC1` (stereo not drawn) [Compound 1-69, 4-[4-[6-(chloromethyl)-1,5-dihydro-3H-2,4-benzodioxepin-3-yl]-2-thiazolyl]-1-[2-[5-methyl-3-(trifluoromethyl)-1H-pyrazole-1-yl]acetyl]piperidine], the results for the pest or weed control at 4 µg/mL in assay [1], in assay [2] and in assay [3] were 100%, 60% and 100%, respectively. In addition, in assay [4], the pest or weed control at 1000 ppm is ≥ 90%.
